Measured values: patent EP0312076A1, “Use of oxoquinazoline derivatives in the treatment of hyperlipidemia” (BOEHRINGER INGELHEIM KG, priority 1987, dated 1989)

Columns and labels:
Harnsäurespiegel = test: Rat test: lowering of uric acid level; type: in vivo; conditions: 100 mg/kg pro Tag (in zwei gleichen Gaben), Ratten
Experimental: (§1) Im Versuch an Ratten wurde mit 100 mg/kg pro Tag (in zwei gleichen Gaben) eine deutliche Senkung des Triglyceridspiegels erreicht, z.B. 34% Senkung gegenüber der Kontrolle bei normolipämischen Ratten. Vorteilhafterweise wurde gleichzeitig der Harnsäurespiegel um 38 % gesenkt. Es läßt sich daher mit einer Substanz eine Therapie der Hyperlipidämie und der Hyperurikämie durchführen. Dadurch können unerwünschte Wechselwirkungen, wie sie bei der sonst nötigen Behandlung mit je einem Wirkstoff gegen die Hyperurikämie und gegen die Hyperlipidämie auftreten können, von vornherein vermieden werden.

Gesamtcholesterin = test: Study in 8 healthy volunteers on a defined purine-rich diet: total cholesterol; type: in vivo, gesunde Probanden; conditions: nach 8 Tagen (nach Therapieende), 600 mg/Tag from day 4, n = 8, before therapy (4 days) 196 ± 70 mg/dl, before diet 201 ± 48 mg/dl
Experimental: In einer anderen Studie erhielten 8 gesunde Probanden eine definierte purinreiche Diät über die Prüfdauer von 8 Tagen. Nach 4 Tagen wurde mit der Verabreichung von 11-Oxo-11-H-pyrido[2,1-b]-chinazolin-2-carbonsäure (600 mg/Tag) begonnen.
Gesamtcholesterin (x); n = 8
Das Ergebnis bedeutet eine l8prozentige Senkung des Gesamtcholesterins.

Gesamtcholesterinspiegel = test: Lowering of total cholesterol level in humans; type: in vivo; conditions: 600 mg pro Tag, beim Menschen
Experimental: Mit 600 mg pro Tag ließ sich z.B. bei Verwendung der 11-Oxo-11-H-pyrido[2,1-b]chinazolin-2-carbonsäure beim Menschen der Gesamtcholesterinspiegel um etwa 25 % senken.

[1] = design: species or system Patienten; conditions: in vivo
Description: Gegenüber den bekannten Mitteln zur Behandlung der Hyperlipidämie haben die erfindungsgemäß verwendbaren Verbindungen, etwa die 11-Oxo-11-H pyrido-[2,1-b]-chinazolin-2-carbonsäure und ihre Salze, den Vorzug besserer Verträglichkeit.

Triglyceridspiegel = test: Rat test: lowering of triglyceride level; type: in vivo; conditions: 100 mg/kg pro Tag (in zwei gleichen Gaben), normolipämische Ratten
Experimental: as §1

With `O=C(O)c1ccc2nc3ccccn3c(=O)c2c1` [11-Oxo-11-H-pyrido[2,1-b]chinazolin-2-carbonsäure] the “Senkung des Harnsäurespiegels” value (Harnsäurespiegel) was 38%, the “Gesamtcholesterin (x)” value (Gesamtcholesterin) was 160 ± 48 mg/dL and the “Senkung des Gesamtcholesterinspiegels” value (Gesamtcholesterinspiegel) was ~25%. For the same molecule, the “präparatespezifische Nebenwirkungen” value [1] was “keinerlei präparatespezifischen Nebenwirkungen” and the “Senkung des Triglyceridspiegels gegenüber der Kontrolle” value (Triglyceridspiegel) was 34%.
